Data taken from PubChem BioAssay (NCI).
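Growth conditions: 96-well plates. Treatment: test compound, 48 hours, 5 concentrations. Analysis: linear interpolation between bracketing concentrations; unreached endpoints set to highest concentration. Definition used: TGI = concentration required for complete inhibition of growth.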

Tests used:
Assay in all cases: NCI tumour cell line growth inhibition, 48 h
TK-10 renal = system: TK-10 renal
HL-60(TB) leukemia = system: HL-60(TB) leukemia
MCF7 breast = system: MCF7 breast
A498 renal = system: A498 renal
NCI/ADR-RES ovarian = system: NCI/ADR-RES ovarian
A549 NSCLC = system: A549 NSCLC
U251 CNS = system: U251 CNS
T-47D breast = system: T-47D breast
PC-3 prostate = system: PC-3 prostate
MOLT-4 leukemia = system: MOLT-4 leukemia
MDA-MB-231 breast = system: MDA-MB-231 breast
ACHN renal = system: ACHN renal
COLO 205 colon = system: COLO 205 colon
SNB-75 CNS = system: SNB-75 CNS
SF-539 CNS = system: SF-539 CNS
HS 578T breast = system: HS 578T breast
HCT-116 colon = system: HCT-116 colon
SK-MEL-2 melanoma = system: SK-MEL-2 melanoma
IGROV1 ovarian = system: IGROV1 ovarian
K-562 leukemia = system: K-562 leukemia
HCC-2998 colon = system: HCC-2998 colon
SK-MEL-5 melanoma = system: SK-MEL-5 melanoma
MDA-MB-435 = system: MDA-MB-435
BT-549 breast = system: BT-549 breast
RXF 393 renal = system: RXF 393 renal
HOP-62 NSCLC = system: HOP-62 NSCLC
CCRF-CEM leukemia = system: CCRF-CEM leukemia
UACC-257 melanoma = system: UACC-257 melanoma
HT29 colon = system: HT29 colon
SF-268 CNS = system: SF-268 CNS
SK-OV-3 ovarian = system: SK-OV-3 ovarian
786-0 renal = system: 786-0 renal
SR leukemia = system: SR leukemia
OVCAR-8 ovarian = system: OVCAR-8 ovarian
NCI-H23 lung = system: NCI-H23 lung
OVCAR-4 ovarian = system: OVCAR-4 ovarian
UO-31 renal = system: UO-31 renal
OVCAR-3 ovarian = system: OVCAR-3 ovarian
NCI-H226 lung = system: NCI-H226 lung
M14 melanoma = system: M14 melanoma
OVCAR-5 ovarian = system: OVCAR-5 ovarian
SNB-19 CNS = system: SNB-19 CNS
MDA-N = system: MDA-N
CAKI-1 renal = system: CAKI-1 renal
RPMI-8226 leukemia = system: RPMI-8226 leukemia
UACC-62 melanoma = system: UACC-62 melanoma
SF-295 CNS = system: SF-295 CNS
HCT-15 colon = system: HCT-15 colon
NCI-H460 lung = system: NCI-H460 lung
HOP-92 NSCLC = system: HOP-92 NSCLC
SK-MEL-28 melanoma = system: SK-MEL-28 melanoma
SN12C renal = system: SN12C renal
EKVX NSCLC = system: EKVX NSCLC
LOX IMVI melanoma = system: LOX IMVI melanoma
NCI-H522 lung = system: NCI-H522 lung
SW-620 colon = system: SW-620 colon
KM12 colon = system: KM12 colon
DU-145 prostate = system: DU-145 prostate
MALME-3M melanoma = system: MALME-3M melanoma

C[C@H](CCC(=O)O[C@@H]1CC[C@@]2(C)C(CC[C@H]3[C@@H]4CC[C@H]([C@H](C)CCc5nc6ccccc6[nH]5)[C@@]4(C)CC[C@@H]32)C1)[C@H]1CC[C@H]2[C@@H]3CCC4C[C@H](O)CC[C@]4(C)[C@H]3CC[C@]12C (some centres not stated)
TGI (TK-10 renal): > 100 µM
TGI (HL-60(TB) leukemia): > 100 µM
TGI (MCF7 breast): > 100 µM
TGI (A498 renal): > 100 µM
TGI (NCI/ADR-RES ovarian): > 100 µM
TGI (A549 NSCLC): > 100 µM
TGI (U251 CNS): > 100 µM
TGI (T-47D breast): > 100 µM
TGI (PC-3 prostate): > 100 µM
TGI (MOLT-4 leukemia): > 100 µM
TGI (MDA-MB-231 breast): > 100 µM
TGI (ACHN renal): > 100 µM
TGI (COLO 205 colon): > 100 µM
TGI (SNB-75 CNS): > 100 µM
TGI (SF-539 CNS): > 100 µM
TGI (HS 578T breast): > 100 µM
TGI (HCT-116 colon): > 100 µM
TGI (SK-MEL-2 melanoma): > 100 µM
TGI (IGROV1 ovarian): > 100 µM
TGI (K-562 leukemia): > 100 µM
TGI (HCC-2998 colon): > 100 µM
TGI (SK-MEL-5 melanoma): > 100 µM
TGI (MDA-MB-435): > 100 µM
TGI (BT-549 breast): > 100 µM
TGI (RXF 393 renal): > 100 µM
TGI (HOP-62 NSCLC): > 100 µM
TGI (CCRF-CEM leukemia): > 100 µM
TGI (UACC-257 melanoma): > 100 µM
TGI (HT29 colon): > 100 µM
TGI (SF-268 CNS): > 100 µM
TGI (SK-OV-3 ovarian): > 100 µM
TGI (786-0 renal): > 100 µM
TGI (SR leukemia): > 100 µM
TGI (OVCAR-8 ovarian): > 100 µM
TGI (NCI-H23 lung): > 100 µM
TGI (OVCAR-4 ovarian): > 100 µM
TGI (UO-31 renal): > 100 µM
TGI (OVCAR-3 ovarian): > 100 µM
TGI (NCI-H226 lung): > 100 µM
TGI (M14 melanoma): > 100 µM
TGI (OVCAR-5 ovarian): > 100 µM
TGI (SNB-19 CNS): 61.2 µM
TGI (MDA-N): > 100 µM
TGI (CAKI-1 renal): > 100 µM
TGI (RPMI-8226 leukemia): > 100 µM
TGI (UACC-62 melanoma): > 100 µM
TGI (SF-295 CNS): > 100 µM
TGI (HCT-15 colon): > 100 µM
TGI (NCI-H460 lung): > 100 µM
TGI (HOP-92 NSCLC): > 100 µM
TGI (SK-MEL-28 melanoma): > 100 µM
TGI (SN12C renal): > 100 µM
TGI (EKVX NSCLC): > 100 µM
TGI (LOX IMVI melanoma): > 100 µM
TGI (NCI-H522 lung): > 100 µM
TGI (SW-620 colon): > 100 µM
TGI (KM12 colon): > 100 µM
TGI (DU-145 prostate): > 100 µM

O=C(Cn1c(C(=O)/C=C/c2ccco2)nc2ccccc21)c1ccc(Cl)cc1
TGI (TK-10 renal): 85.8 µM
TGI (HL-60(TB) leukemia): 41 µM
TGI (MCF7 breast): 76.4 µM
TGI (A498 renal): 44.4 µM
TGI (NCI/ADR-RES ovarian): 30.4 µM
TGI (A549 NSCLC): > 100 µM
TGI (U251 CNS): > 100 µM
TGI (T-47D breast): > 100 µM
TGI (PC-3 prostate): 44.2 µM
TGI (MDA-MB-231 breast): 59.8 µM
TGI (ACHN renal): > 100 µM
TGI (COLO 205 colon): 49.2 µM
TGI (SNB-75 CNS): > 100 µM
TGI (SF-539 CNS): > 100 µM
TGI (HS 578T breast): 24.6 µM
TGI (HCT-116 colon): 39.9 µM
TGI (SK-MEL-2 melanoma): 27.8 µM
TGI (IGROV1 ovarian): 57.1 µM
TGI (K-562 leukemia): 51 µM
TGI (HCC-2998 colon): 33.6 µM
TGI (SK-MEL-5 melanoma): 97.1 µM
TGI (MDA-MB-435): 32.7 µM
TGI (BT-549 breast): 42.9 µM
TGI (RXF 393 renal): > 100 µM
TGI (HOP-62 NSCLC): > 100 µM
TGI (CCRF-CEM leukemia): 27.4 µM
TGI (UACC-257 melanoma): 51.9 µM
TGI (MALME-3M melanoma): 40.2 µM
TGI (HT29 colon): 92.6 µM
TGI (SF-268 CNS): 58.6 µM
TGI (SK-OV-3 ovarian): > 100 µM
TGI (786-0 renal): 31.4 µM
TGI (SR leukemia): 16.4 µM
TGI (NCI-H23 lung): 28.1 µM
TGI (OVCAR-4 ovarian): 65 µM
TGI (UO-31 renal): 94.3 µM
TGI (OVCAR-3 ovarian): > 100 µM
TGI (NCI-H226 lung): > 100 µM
TGI (M14 melanoma): 58.2 µM
TGI (OVCAR-5 ovarian): > 100 µM
TGI (SNB-19 CNS): > 100 µM
TGI (MDA-N): 50.2 µM
TGI (RPMI-8226 leukemia): 32.9 µM
TGI (UACC-62 melanoma): > 100 µM
TGI (HCT-15 colon): 99.4 µM
TGI (NCI-H460 lung): 27.2 µM
TGI (HOP-92 NSCLC): > 100 µM
TGI (SK-MEL-28 melanoma): > 100 µM
TGI (SN12C renal): 61.5 µM
TGI (LOX IMVI melanoma): 26.7 µM
TGI (SW-620 colon): > 100 µM
TGI (KM12 colon): 47.1 µM
TGI (DU-145 prostate): > 100 µM

COc1ccc(C(=O)/C=C2\c3ccccc3C(=O)N2C)cc1
TGI (TK-10 renal): > 100 µM
TGI (MCF7 breast): > 100 µM
TGI (A498 renal): > 100 µM
TGI (NCI/ADR-RES ovarian): > 100 µM
TGI (A549 NSCLC): > 100 µM
TGI (U251 CNS): > 100 µM
TGI (T-47D breast): > 100 µM
TGI (PC-3 prostate): > 100 µM
TGI (MOLT-4 leukemia): > 100 µM
TGI (MDA-MB-231 breast): > 100 µM
TGI (ACHN renal): > 100 µM
TGI (COLO 205 colon): > 100 µM
TGI (SNB-75 CNS): > 100 µM
TGI (SF-539 CNS): > 100 µM
TGI (HS 578T breast): > 100 µM
TGI (HCT-116 colon): > 100 µM
TGI (SK-MEL-2 melanoma): > 100 µM
TGI (IGROV1 ovarian): > 100 µM
TGI (K-562 leukemia): > 100 µM
TGI (SK-MEL-5 melanoma): > 100 µM
TGI (MDA-MB-435): > 100 µM
TGI (BT-549 breast): > 100 µM
TGI (RXF 393 renal): 82.8 µM
TGI (HOP-62 NSCLC): > 100 µM
TGI (CCRF-CEM leukemia): > 100 µM
TGI (UACC-257 melanoma): > 100 µM
TGI (MALME-3M melanoma): > 100 µM
TGI (HT29 colon): > 100 µM
TGI (SF-268 CNS): > 100 µM
TGI (SK-OV-3 ovarian): > 100 µM
TGI (786-0 renal): > 100 µM
TGI (SR leukemia): > 100 µM
TGI (OVCAR-8 ovarian): > 100 µM
TGI (NCI-H23 lung): > 100 µM
TGI (OVCAR-4 ovarian): > 100 µM
TGI (UO-31 renal): > 100 µM
TGI (OVCAR-3 ovarian): > 100 µM
TGI (M14 melanoma): > 100 µM
TGI (OVCAR-5 ovarian): > 100 µM
TGI (SNB-19 CNS): > 100 µM
TGI (MDA-N): > 100 µM
TGI (CAKI-1 renal): > 100 µM
TGI (RPMI-8226 leukemia): > 100 µM
TGI (UACC-62 melanoma): > 100 µM
TGI (SF-295 CNS): > 100 µM
TGI (HCT-15 colon): > 100 µM
TGI (NCI-H460 lung): > 100 µM
TGI (HOP-92 NSCLC): 75.7 µM
TGI (SK-MEL-28 melanoma): > 100 µM
TGI (SN12C renal): > 100 µM
TGI (EKVX NSCLC): > 100 µM
TGI (LOX IMVI melanoma): > 100 µM
TGI (NCI-H522 lung): > 100 µM
TGI (SW-620 colon): > 100 µM
TGI (KM12 colon): > 100 µM
TGI (DU-145 prostate): > 100 µM
